Data published in article PMC4287973, “Tumor cell-specific inhibition of MYC function using small molecule inhibitors of the HUWE1 ubiquitin ligase” (EMBO Molecular Medicine, 2014).
Where a SMILES comes first, the peptide text is derived from it. The star is where a group is joined. Cbz = O=C(OCc1ccccc1)*

Tested on: MIZ1
Assay: HUWE1-mediated decrease in MIZ1 levels in transfected HeLa cells
Type: cell-based
Settings: MG132 10 µM for 6 hrs
Description: Neither depletion nor chemical inhibition of HUWE1 affected the expression of any member of the MXD family of repressor proteins that antagonize transactivation by MYC or nuclear localization of MYC (Supplementary Figs S9A and S10). […] In contrast, ectopic expression of HUWE1 had only moderate effects on steady-state levels of MYC, consistent with the results obtained in response to depletion of HUWE1 (Fig6A). As a result, ectopic expression of HUWE1 increased the relative amount of MYC that is not bound to MIZ1 (Fig6B). […] Consistently, depletion or chemical inhibition of HUWE1 increased steady-state levels of MIZ1 in colon carcinoma cells (Fig6D and E). Similarly, depletion or inhibition of HUWE1 increased levels of MIZ1 in mouse keratinocytes (Supplementary Fig S11B and C), in which HUWE1 is known to degrade MIZ1 (Inoue et al, [2013]).
Peter et al. HUWE1 inhibition
B. Immunofluorescence staining of MYC upon HUWE1 inhibition. Ls174T cells were treated […]
Supplementary Figure S11: Characterization of HUWE1 effects on MIZ1 stability.
A, Effect of proteasome inhibition on HUWE1-induced downregulation of MIZ1. HeLa cells were transfected with plasmids encoding MIZ1 and HA-HUWE1. Cells were treated with BI8622 (20 µM) for 24 hrs, DMSO served as solvent control. MG132 was used at 10 µM for 6 hrs. Lysates were analyzed for expression of HUWE1 and MIZ1, Vinculin was used as […]

CC(C)C[C@@H](C=O)NC(=O)[C@H](CC(C)C)NC(=O)[C@H](CC(C)C)NC(=O)OCc1ccccc1 [MG132] (Cbz-Leu-Leu-Leu-aldehyde)
HUWE1-mediated decrease in MIZ1 levels: blocked
